Here are results for one compound from patent US4788211A, “Antifungal compound and AFC complex produced from actinomadura SCC 1838” (priority 1987, dated 1988).

In one series the test system is Candida. The experiment in a line: intravaginal Candida infection in hamsters. It is filed as in vivo.
The test system of a further series is Candida (seven species). The experiment in a line: in vitro antifungal activity (geometric mean MIC), Candida. It is filed as cell-based. Particulars: for MIC: Candida, Candida (seven species). An excerpt:
(§1) The in vitro antifungal results are summarized in Table II and provide the geometric mean MIC (mcg/mL).

The next series is described as follows: iv LD50 in mice. The following applies: mouse, in vivo.
For series [1], the system named is Dermatophytes (six species). Kind of series: in vitro antifungal activity (geometric mean MIC), dermatophytes. It is filed as cell-based. The following applies: for MIC: Dermatophytes (six species).
Text: as §1

The mark [2] stands for this setting: SDB (Sabouraud dextrose broth medium).

Converted amounts (≈) assume the structure as drawn. Bounds are passed on as bounds.

`N=C(N)NCCCCCCCCC(O)CCCCCCCC1NC(=N)NC1CC(O)CNC(=N)N` (stereo not drawn) [compound of this invention]: the “activity against an intravaginal Candida infection” value in the series with Candida is reported as “slight activity”. The MIC against Candida (seven species) (EMEM (Eagles Minimum Essential Medium)) was less than 0.03 µg/mL; in the series with Candida (seven species) (MA Medium), no more than 1.4 µg/mL; with Candida (seven species) (setting [2]) it was no less than 58 µg/mL; in series [1] (MA Medium) it was 2.5 µg/mL (≈ 5.02 µM); in series [1] (setting [2]), no more than 0.13 µg/mL. Moreover, the “in vitro antifungal activity” value (with Candida (seven species) (seven species of Candida); in series [1] (six species of dermatophytes)) was “very good in vitro antifungal activity” each time. Further, in “iv LD50 in mice”, the LD50 was roughly 1.5 mg/kg.
